Assay results as given in PMC11050599, “Novel Tetracyclic Azaphenothiazines with the Quinoline Ring as New Anticancer and Antibacterial Derivatives of Chlorpromazine” (International Journal of Molecular Sciences, 2024).
Read-outs that look alike come from different tables or passages of the source.

Key:
[1] = test system: A549 (lung cancer); assay: MTT assay, A549 cells; format: cell-based, human; conditions: for IC50: MTT, 72 h, mean SD, read-out: IC50 A549; for SI A549: SI = IC50 for normal cell line (HaCaT)/IC50 cancer cell line
Experimental: (§1) The human cell lines, such as A549 (lung cancer), MDA-MB-231 (breast cancer), MiaPaca-2 (pancreatic cancer), PC3 (metastatic prostate cancer), HCT-116 (colon carcinoma), and HaCaT (immortalized keratinocytes), were sourced from the American Type Culture Collection (ATCC) in Rockville, USA. Culturing conditions varied as follows: HCT116 cells were cultured in MEM (ThermoSci, Waltham, MA, USA), A549, MDA-MB-231, MiaPaca, HaCaT cells in DMEM High Glucose and PC3 cells were cultured in RPMI (Biowest SAS, Nuaillé, France). The growth medium consisted of 10% fetal bovine serum (FBS, Sigma-Aldrich, St. Louis, MO, USA), 20 mM HEPES (Biowest, Nuaillé, France), and antibiotics (100 U/mL of penicillin and 100 μg/mL of streptomycin) from Gibco, Grand Island, NY, USA. […] These compounds were added to 96-well plates containing study cells (1 × 10^4 cells per well) and incubated for 72 h. […] Cell absorbance results were incorporated into the formula for calculating the relative MTT level (%), enabling the assessment of cell viability following exposure to the test compounds. The cell viability percentage represents the MTT reduction in cells treated with the test compounds compared to the control sample, where only the medium was added to the cells.

[2] = test system: HaCaT (immortalized human keratinocytes); assay: MTT assay, HaCaT normal cells; format: cell-based; conditions: MTT, 72 h, normal cells, read-out: IC50 HaCaT (Table 3)
Experimental: as §1

[3] = test system: MDA-MB-231 (breast cancer); assay: MTT assay, MDA-MB-231 cells; format: cell-based, human; conditions: for IC50: MTT, 72 h, MDA-MB231, read-out: IC50 MDA; for SI MDA: SI = IC50 for normal cell line (HaCaT)/IC50 cancer cell line
Experimental: as §1

[4] = test system: S. aureus ATCC 29213; assay: MIC broth microdilution; format: cell-based; conditions: 19 h, 35 °C; for MIC: Staphylococcus aureus, ATCC29213, read-out: MIC S. aureus ATCC 29213
Text: (§2) To evaluate the antibacterial effectiveness of chloroquinobenzothiazine derivatives, various bacterial strains from international microbe collections such as the American Type Culture Collection (ATCC) and the National Collection of Type Culture (NCTC) were examined, alongside a panel of clinical rods. This included two Gram-negative organisms, E. coli ATCC 25922 and P. aeruginosa ATCC 15442, and a series of six Gram-positive strains: S. aureus NCTC 4163; S. aureus ATCC 29213, 25923, and 6538; and S. epidermidis ATCC 12228 and 35984. […] The MIC was determined using the two-fold serial broth microdilution method in 96-well microtitration plates containing Mueller-Hinton II broth medium (Becton Dickinson, Franklin Lakes, NJ, USA). The final inoculum for all tested bacteria was adjusted to […] (colony-forming units per milliliter). The stock solution of the tested compounds was prepared in dimethyl sulfoxide (DMSO) and diluted to a maximum of 1% solvent content with a sterile medium.

[5] = test system: S. epidermidis ATCC 12228; assay: MIC broth microdilution; format: cell-based; conditions: 19 h, 35 °C; for MIC: Staphylococcus epidermidis, ATCC12228, read-out: MIC S. epidermidis ATCC 12228
Text: as §2

[6] = test system: S. aureus NCTC 4163; assay: MIC broth microdilution; format: cell-based; conditions: 19 h, 35 °C; for MIC: Staphylococcus aureus, NCTC4163, read-out: MIC S. aureus NCTC 4163
Text: as §2

[7] = test system: P. aeruginosa ATCC 15442; assay: MIC broth microdilution; format: cell-based; conditions: 19 h, 35 °C; for MIC: Pseudomonas aeruginosa, ATCC15442, read-out: MIC P. aeruginosa ATCC 15442
Text: as §2

[8] = test system: E. coli ATCC 25922; assay: MIC broth microdilution; format: cell-based; conditions: 19 h, 35 °C; for MIC: Escherichia coli, ATCC25922, read-out: MIC E. coli ATCC 25922
Text: as §2

[9] = test system: S. epidermidis ATCC 35984; assay: MIC broth microdilution; format: cell-based; conditions: 19 h, 35 °C; for MIC: Staphylococcus epidermidis, ATCC35984, read-out: MIC S. epidermidis ATCC 35984
Text: as §2

[10] = test system: S. aureus ATCC 25923; assay: MIC broth microdilution; format: cell-based; conditions: 19 h, 35 °C; for MIC: Staphylococcus aureus, ATCC25923, read-out: MIC S. aureus ATCC 25923
Text: as §2

[11] = test system: S. aureus ATCC 6538; assay: MIC broth microdilution; format: cell-based; conditions: 19 h, 35 °C; for MIC: Staphylococcus aureus, ATCC6538, read-out: MIC S. aureus ATCC 6538
Text: as §2

8-Chloro-6-[(1-benzyl-1H-1,2,3-triazol-4-yl)-methyl]-quinobenzo[1,4]thiazine [Compound 29]
> 100 µM: IC50 [1] | IC50 [2] | IC50 [3]
1.0: SI A549 [1] | SI MDA [3]
>256 µg/mL: MIC S. aureus ATCC 29213 [4] | MIC S. epidermidis ATCC 12228 [5] | MIC S. aureus NCTC 4163 [6] | MIC P. aeruginosa ATCC 15442 [7] | MIC E. coli ATCC 25922 [8] | MIC S. epidermidis ATCC 35984 [9] | MIC S. aureus ATCC 25923 [10] | MIC S. aureus ATCC 6538 [11]

CC(=O)NCCCCN1c2cc(Cl)ccc2Sc2cc3ccccc3nc21 [Compound 17, N-(4-(8-Chloroquino[3,2-b]benzo[1,4]thiazin-6-yl)butyl)acetamide]
1.0: SI MDA [3]
> 256 µg/mL: MIC [4] | MIC [5] | MIC [6] | MIC [7] | MIC [8] | MIC [9] | MIC [10] | MIC [11]
> 100 µM: IC50 ([2]; Homo sapiens, HaCaT) | IC50 ([3]; Homo sapiens, MDA-MB-231)
1.2: SI A549 [1]
82.3 ± 6.2 µM: IC50 ([1]; Homo sapiens, A549)

8-Chloro-6-[(1-(4-chlorobenzyl)-1H-1,2,3-triazol-4-yl)methyl]-quinobenzo[1,4]thiazine [Compound 31]
>256 µg/mL: MIC S. aureus ATCC 29213 [4] | MIC S. epidermidis ATCC 12228 [5] | MIC S. aureus NCTC 4163 [6] | MIC P. aeruginosa ATCC 15442 [7] | MIC E. coli ATCC 25922 [8] | MIC S. epidermidis ATCC 35984 [9] | MIC S. aureus ATCC 25923 [10] | MIC S. aureus ATCC 6538 [11]
1.0: SI A549 [1] | SI MDA [3]
> 100 µM: IC50 [1] | IC50 [2] | IC50 [3]

FC(F)(F)c1ccc(-n2cc(CN3c4cc(Cl)ccc4Sc4cc5ccccc5nc43)nn2)cc1 [Compound 28, 8-Chloro-6-((1-(4-(trifluoromethyl)phenyl)-1H-1,2,3-triazol-4-yl)methyl)-quino[3,2-b]benzo[1,4]thiazine]
> 100 µM: IC50 ([1]; Homo sapiens, A549) | IC50 ([2]; Homo sapiens, HaCaT) | IC50 ([3]; Homo sapiens, MDA-MB-231)
1.0: SI A549 [1] | SI MDA [3]
> 256 µg/mL: MIC [4] | MIC [5] | MIC [6] | MIC [7] | MIC [8] | MIC [9] | MIC [10] | MIC [11]

CS(=O)(=O)NCCCN1c2cc(Cl)ccc2Sc2cc3ccccc3nc21 [Compound 22, N-(3-(8-Chloroquino[3,2-b]benzo[1,4]thiazin-6-yl)propyl)methanesulfonamide]
> 100 µM: IC50 ([1]; Homo sapiens, A549) | IC50 ([2]; Homo sapiens, HaCaT) | IC50 ([3]; Homo sapiens, MDA-MB-231)
1.0: SI A549 [1] | SI MDA [3]
> 256 µg/mL: MIC [4] | MIC [5] | MIC [6] | MIC [7] | MIC [8] | MIC [9] | MIC [10] | MIC [11]

CCOC(=O)NCCCN1c2cc(Cl)ccc2Sc2cc3ccccc3nc21 [Compound 18, Ethyl(3-(8-chloroquino[3,2-b]benzo[1,4]thiazin-6-yl)propyl)carbamate]
> 100 µM: IC50 ([2]; Homo sapiens, HaCaT) | IC50 ([3]; Homo sapiens, MDA-MB-231)
1.0: SI MDA [3]
> 256 µg/mL: MIC [4] | MIC [5] | MIC [6] | MIC [7] | MIC [8] | MIC [9] | MIC [10] | MIC [11]
1.1: SI A549 [1]
86.6 ± 0.8 µM: IC50 ([1]; Homo sapiens, A549)
